In patent US10583387B2, “Guanidine compounds for carbon dioxide capture” (UT-Battelle, LLC, priority 2017, dated 2020):
Converted amounts (≈) assume the structure as drawn. “And” between values parts separate entries of the source, which are not always exact repeats. Equal entries are not always repeated.

Legend:
[1] = cited from earlier work
[2] = CO2 release and PyBIG regeneration by solar oven heating; assay type: physicochemical
Procedure: The CO2 release from the PyBIGH2(CO3)(H2O)4 crystals was conducted by solar heating with a solar oven. The oven consists of a vacuum-insulated borosilicate tube placed in the focal point of two adjustable parabolic reflectors. The temperature inside the tube was monitored with a thermocouple. The PyBIGH2(CO3)(H2O)4 samples 36.4-45.0 mg, 0.095-0.118 mmol) were loaded in 1 mL glass vials, which were placed inside the oven tube. The solar oven was then placed in the full sun and oriented to capture the maximum amount of sunlight. The temperature was ramped to the targeted values of 120° C., 130° C., 140° C., 150° C., or 160° C. as fast as possible (typically within 3 to 10 minutes), then held within ±2° C. by intermittently moving the oven out of the sun, or/and closing the reflectors. The samples were subsequently removed from the tube, allowed to cool to room temperature, and weighed to determine their mass loss. The resulting yellow solids were analyzed by FTIR to confirm the disappearance of the carbonate and water peaks. The solar regeneration experiments were repeated three times at each temperature, and the average values and standard deviations calculated.
However, considering that this transformation is highly endothermic, the possibility of using concentrated solar power to render the process more energy sustainable was explored. For the initial small-scale proof of concept, a solar oven was used to heat solid PyBIGH2(CO3)(H2O)4 samples (˜38 mg, 0.1 mmol) at five different temperatures ranging between 120 and 160° C. FTIR analyses corroborated the release of CO2, most evidently noticeable by the disappearance of the strong peak at 1361 cm^−1 corresponding to the stretching mode of the carbonate anion.

[3] = cited from earlier work; for reaction rate of CO2 with sorbent: 25° C.
[4] = Differential scanning calorimetry (DSC), enthalpy of CO2 release; assay type: physicochemical
Text: In order to determine the enthalpy of CO2 release from PyBIGH2(CO3)(H2O)4, differential scanning calorimetry (DSC) was employed. DSC is a common technique used in thermal analysis of solids. […] Unfortunately, the extensive overlap between the peaks prevented a determination of the heats associated with each thermal event. Instead, all the peaks were integrated together to obtain the overall enthalpy of desorption for PyBIGH2(CO3)(H2O)4, which amounts to 223±4 kJ/mol. While the overall reaction is highly endothermic, it should be taken into account that, for each CO2 molecule released from PyBIGH2(CO3)(H2O)4, there are four molecules of hydration that are desorbed (plus a fifth water molecule that is a bi-product of the carbonate decomposition).
In order to determine the fraction of the reaction enthalpy corresponding to the CO2 release from the carbonate, anhydrous PyBIGH2(CO3) was prepared by overnight vacuum pumping of PyBIGH2(CO3)(H2O)4 at 30° C. […] The difference between the measured endotherms of PyBIGH2(CO3)(H2O)4 and PyBIGH2(CO3), of 148 kJ/mol, can be assigned to dehydration of the carbonate salt. This corresponds to an average of 37 kJ/mol per water of hydration, which is close to the enthalpy of vaporization for liquid water, of 40.65 kJ/mol. While a large fraction of the heat required to release the CO2 is spent on water evaporation, part of the waste heat could be recovered by process modifications that involve water condensation steps in which the resulting heat is collected and re-used via heat exchangers. Alternatively, vacuum-drying operations that typically require less energy than heat drying can be employed for dehydration of PyBIGH2(CO3)(H2O)4 prior to CO2 release. The use of renewable sources of energy, such as concentrated solar power, is also herein being considered to make the overall DAC process energy sustainable.

[5] = Reaction enthalpies of elementary steps in DAC with PyBIG (van't Hoff analyses); assay type: physicochemical; details: for ΔH, PyBIGH2(CO3)(H2O)4 crystallization: equation 6
Text: It is instructive to compare the thermodynamics of the CO2 absorption by PyBIG with those of other sorbents used in DAC. For example, amine sorbents have absorption enthalpies in the range of 60-80 kJ/mol. […] Thus, the actual CO2 ‘binding’ by PyBIG, corresponding to equations 3-5 combined, has an enthalpy of −109.8 kJ/mol. This is essentially the same as the enthalpy of CO2 absorption by aqueous NaOH. The crystallization step (equation 6) then adds −47 kJ/mol, to make the overall absorption process a combined −156 kJ/mol, which is about twice as exothermic compared to the CO2 absorption by a typical amine sorbent. However, dissolution of PyBIG (equation 1), which is endothermic (+42.5 kJ/mol) and essentially offsets the exothermic crystallization in step 6, and proton transfer from water to the guanidine groups (equation 2), which is also endothermic (+43.6), brings the overall enthalpy for CO2 capture by PyBIG (equation 7) to −70.7 kJ/mol.

[6] = Thermogravimetric analysis (TGA-MS) and oven heating of the carbonate crystals; assay type: physicochemical
Text: Thermogravimetric analysis coupled with mass spectrometry (TGA-MS) provided a more quantitative picture of the decomposition process.

[7] = Equilibrium constant for the amino acid regeneration reaction (equation 11); assay type: physicochemical; details: glycine sorbent, ideal conditions
Text: In addition to the enthalpies of CO2 absorption and release, another important thermodynamic parameter is the equilibrium constant for the amino acid regeneration reaction (equation 10), which defines the efficiency limit for sorbent regeneration.

[8] = Accelerated aging of PyBIG (thermal stability); assay type: physicochemical
physchem = details: pH 10, water, thermodynamic from solid
[9] = Aqueous solubility and solubility product (variable-temperature solubility measurements); details: saturated solution (~10 mM)
[10] = pKa by potentiometric titration; assay type: physicochemical; details: 25° C., read-out: pKa of the two guanidinium groups
[11] = liquid; cited from earlier work

O=C=O [CO2, carbon dioxide]
ΔH, CO2 dissolution ([1]; equation 3): -4.64 kcal/mol

O=C(O)O [CO3^2−, carbonate]
ΔH, CO3^2− formation ([1]; equation 5): -9.66 kcal/mol

O=C([O-])[O-].[Ca+2] [CaCO3, reference compound]
CO2 release on solar heating ([2]; two hours at 160° C.): no CO2 release was observed

O=C(O)O [HCO3^−, bicarbonate]
ΔH, HCO3^− formation ([1]; equation 4): -12 kcal/mol

[Na+].[OH-] [NaOH]
flux of CO2 absorbed from air ([3]; 1 M solution): around 30 μmol/m^2/s

N=C(N)NN=Cc1cccc(C=NNC(=N)N)n1.O.O.O.O.O=C(O)O [PyBIGH2(CO3)(H2O)4]
average enthalpy per water of hydration [4]: 8.84 kcal/mol
overall enthalpy of desorption (DSC) ([4]; all peaks between 80 and 140° C. integrated): 53.3 ± 0.96 kcal/mol
enthalpy of dehydration of the carbonate salt ([4]; difference between endotherms of hydrated and anhydrous salt): 35.4 kcal/mol
Weight loss ([2]; 120 ° C., 30 min): 32.3 ± 0.8%
Weight loss ([2]; 130 ° C., 15 min): 32.3 ± 0.8%
Weight loss ([2]; 140 ° C., 10 min): 33.2 ± 0.8%
Weight loss ([2]; 150 ° C., 5 min): 32.5 ± 0.8%
Weight loss ([2]; 160 ° C., 2 min): 33.8 ± 0.3%
ΔH, PyBIGH2(CO3)(H2O)4 crystallization [5]: -11.2 kcal/mol
decomposition completion, isothermal TGA ([6]; 80° C., after 300 minutes): 77%
time to complete loss of carbon dioxide and water, isothermal TGA ([6]; 100° C.): 150 min
time to complete loss of carbon dioxide and water, isothermal TGA ([6]; 120° C.): 60 min
mass loss, temperature-ramped TGA ([6]; between 65 and 140° C.): 35.2%
mass loss of crystals heated in the oven ([6]; one hour at 120° C.): 34.3%

N=C(N)NN=Cc1cccc(C=NNC(=N)N)n1.O=C(O)O [PyBIGH2(CO3)]
enthalpy of the CO2 release (DSC) ([4]; anhydrous carbonate salt): 17.9 ± 1.4 kcal/mol

N=C(N)N/N=C/c1cccc(/C=N/NC(=N)N)n1 [PyBIG]
log Kreg [7]: 3.5
initial weight loss corresponding to CO2 and H2O loss ([8]; 120° C. in open air): 35.3%
weight loss during accelerated aging (TGA) ([8]; 120° C. in open air for a week, after initial loss): 0.5%
solubility (physchem): ~10 mM (≈ 2470 µg/mL)
pH of saturated solution [9]: about 10
ΔH, PyBIG dissolution ([5]; equation 1): 10.2 kcal/mol
ΔH, PyBIG protonation ([5]; equation 2, sum of both protonation enthalpies plus twice water deprotonation): 43.6 kJ/mol and 43.6^a kJ/mol
ΔH, PyBIGH2(CO3)(H2O)4 crystallization [5]: -11.2 kcal/mol
enthalpy of CO2 'binding' ([5]; equations 3-5 combined): -26.24 kcal/mol
enthalpy of absorption incl. crystallization step ([5]; equations 3-6 combined): -37.3 kcal/mol
no decomposition up to (TGA-MS) ([6]; regenerated compound): 190 °C
pKa [10]: 7.6

NCC(=O)O [glycine]
reaction rate of CO2 with sorbent [3]: ~13.9 kM/s

CNCC(=O)O [sarcosine]
reaction rate of CO2 with sorbent [3]: ca. 18.6 kM/s

O [water]
enthalpy of vaporization [11]: 9.716 kcal/mol
